# Source: patent US10624895B2, “Methods of sensitizing a patient with glioma to a therapeutic agent by administering small hairpin RNA targeting PDZ-RHOGEF” (THE TRANSLATIONAL GENOMICS RESEARCH INSTITUTE, priority 2016, dated 2020)
# Columns and labels:
# TNFR1 = experiment: Western blot of TNFR1 expression after PPF treatment; assay type: cell-based, human; conditions: T98G, GBM10, GBM43 cells, 5 μM PPF, 24 hours
# Experimental: (§1) FIG. 24A—a Western blot analysis of TROY expression in T98G cells. Cells were treated with PPF at indicated concentrations for 6 hrs, lysed, and cell lysates immunoblotted with anti-TROY antibody. Immunoblotting of α-Tubulin in cell lysates is included as a loading control. FIG. 24B—Western blot analysis of TROY expression in T98G, GBM43, and GBM10 cells. Cells were treated with PPF at indicated concentrations for 24 hrs, lysed, and cell lysates immunoblotted with anti-TROY and α-Tubulin antibodies. FIG. 24C—Western Blot analysis of TROY expression in GBM10 and GBM43 primary glioma cells. Cells were treated with 5 μM PPF, lysed at the indicated time-points, and the lysates immunoblotted with an anti-TROY antibody. Immunoblotting of β-Actin in cell lysates is included as a loading control. FIG. […]—Western Blot analysis of T98G, GBM10 and GBM43 glioma cells treated with 5 μM PPF for 24 hours. […]
# (§2) Referring now to FIGS. 24A, 24B, 24C, and 24D: The inventors investigated if PPF could be utilized pharmacologically to decrease TROY expression in GBM cells. […] Cells were treated with increasing concentration of PPF, 1 to 20 μM lysed, and TROY expression assessed by immunobloting. […] Protein concentrations were determined using the BCA Assay (Pierce). […] Protein bands were detected using SuperSignal® Chemiluminescent Substrate (Pierce) with a UVP BioSpectrum 500 Imaging System.
# EGFR = experiment: Western blot of EGFR expression after PPF treatment; assay type: cell-based, human; conditions: T98G, GBM10, GBM43 cells, 5 μM PPF, 24 hours
# Experimental: as §1, §2
# AKT = experiment: Immunoblot of AKT activation after PPF; assay type: cell-based, human; conditions: T98G and GBM43 cells treated with PPF
# Experimental: FIGS. 26A, 26B, and 26C depict that PPF sensitizes GBM cells to TMZ and radiotherapy. FIG. 26A—A clonogenic assay was used to assess T98G and GBM43 cells survival after TMZ and radiation treatment. Cells were pre-treated with 5 μM PPF for 24 hours, and then either treated with 250 μM TMZ for 24 hours or exposed to 2 Gy radiation. Graph depicts the surviving fraction in the treated cells compared to vehicle (VC) treated or non-treated (NT) cells, **p<0.01. FIG. 26B—T98G glioma cells were treated with vehicle, PPF (5 μM) TMZ (250 μM) and PPF in combination with TMZ. TMZ-induced apoptosis was assayed by immunoblot analysis of cell lysates with an antibody to cleaved PARP. Immunoblotting for α-Tubulin was included as a loading control. FIG. 26C—T98G, GBM10, and GBM43 cells were treated with PPF ([…], and then immunoblotted to assess the activation of AKT and NF-κB. Immunoblotting for β-Actin is included as a loading control.
# Referring now to FIGS. 26A, 26B, and 26C: Knockdown of TROY expression with shRNA decreases TMZ resistance in GBM cells in vitro (See Reference 42). […] Following combination therapy, cells were trypsinized, counted, and plated in a 6-well culture dish at densities of 100, 250, and 500 cells per well in triplicate. Cells were incubated for 12 days then fixed, stained with 0.5% crystal violet solution, and counted manually by blinded observers. […]
# [1] = tested on: T98G, GBM10, and GBM43 cells; experiment: Lamellipodia formation and membrane ruffling (F-actin staining); assay type: cell-based, human; conditions: 5 μM PPF 1 hour prior to 10% FBS for 5 min
# Experimental: FIGS. 28A and 28B depict that PPF suppresses GBM cell membrane ruffling. FIG. 28A—GBM43 cells were preincubated with 5 μM PPF or vehicle for 1 hour prior to 10% FBS stimulation for 5 min. After FBS stimulation, cells were fixed, permeabilized, and stained for F-actin. For each experimental condition, at least 12 images were taken randomly. Arrowhead indicates membrane ruffles. FIG. 28B—Graph depicts the average lamellipodia in T98G, GBM10, and GBM43 cells in the presence or absence of 10% FBS with or without 5 μM PPF as indicated. Lamellipodia were traced using Image J software.
# Referring now to FIGS. 28A and 28B: The inventors investigated lamellipodia formation and membrane ruffling. Briefly, glioma cells were plated onto 10-well glass slides pre-coated with 10 μg/ml laminin at the density of 3000 cells/well for 24 hours at 37° C. Subsequently, cells were serum starved for 16 hours. The cells were pre-incubated with 5 μM PPF or vehicle for 1 hour prior to 10% FBS stimulation for 5 min. After FBS stimulation, cells were fixed in 4% PFA, permeabilized with 0.1% Triton X-100, and incubated with Alexa Fluor® 555 Phalloidin (Invitrogen) to stain for F-actin. Slides were mounted with ProLong® reagent with DAPI and imaged using a Zeiss LSM 510 microscope. For each experimental condition, at least 12 images were randomly taken. Lamellipodia were traced using ImageJ software.
# microglia = conditions: by decreasing TROY expression; cited from earlier work
compound,measurement,setting,value
"CCCn1cnc2c1c(=O)n(CCCCC(C)=O)c(=O)n2C [PPF, 3-methyl-1-(5-oxohexyl)-7-propyl-3,7-dihydro-1H-purine-2,6-dione]",TNFR1 expression,TNFR1,did not affect the expression
same,EGFR expression,EGFR,did not affect the expression
same,AKT phosphorylation,AKT,effectively decreased
same,lamellipodia formation and membrane ruffling,[1],significantly decreased
same,migration of microglia,microglia,inhibit the migration of microglia
